According to patent US20240207282A1, “METHOD OF INCREASING CHAPERONE MEDIATED AUTOPHAGY BY STABILIZING THE INTERACTION OF RETINOIC ACID RECEPTOR-ALPHA AND AN INHIBITOR” (ALBERT EINSTEIN COLLEGE OF MEDICINE, priority 2021, published 2024):

Tests used:
[1] = Bidirectional permeability assay with CaCo-2 cells; type: in vitro ADME
Protocol: In vitro solubility in the following conditions A) HBSS/HEPES 10 mM/BSA 0.1% pH 6 B) HBSS/HEPES 10 mM/BSA 0.1% pH 7.4 C) TRIS/BSA 0.1% PBS (pH 7.4 and at indicated doses were measured by Nephelometry using the NEPHELOstar Galaxy apparatus (BMG Lab Technologies). In vitro stability in human, mouse and rat liver microsomes and permeability using a bidirectional permeability assay with CaCo-2 cells (pH 6.5/7.4) assays were performed with standard methodology and analyzed by LC-MS/MS. at SIMM-SERVIER joint Biopharmacy Laboratory. In silico ADME properties calculated by QikProp (Schrodinger, LLC) analysis and ADME predictions for CA39 (left) and CA77 (right).

[2] = test system: retinal explants of rd10 mice; assay: Ex vivo retinal explants of rd10 mice; set-up: species or system mouse; settings: 10 μM, 24 h; vs contralateral untreated explant
Protocol: Ex-vivo retinal cultures: After removal of the eyes, all non-relevant tissue was removed from the neuroretina, which was then placed, photoreceptors upside down, in millicell support inserts (Millipore) and maintained in DMEM with 1 μM insulin (SIGMA, I2643-25 mg) for 24 h at 37° C. in a 5% CO2 atmosphere. Where indicated, retinas were incubated with 10 µM CA77 for the indicated times. The retinas were then washed twice with phosphate-buffered saline (PBS), fixed overnight in 4% paraformaldehyde (w/v) in 0.1 M phosphate buffer (pH 7.4) and processed.
Staining of whole-mount retinas: Immunostainings were performed overnight at 4° ° C. using antibodies against visual arrestin (Santacruz Biotechnologies) and Opsin R/G (Millipore) after initial permeabilization with 2% Triton X-100 for 1 h at RT and subsequent incubation with blocking solution (10% normal goat serum, 0.25% Triton X-100 in PBS). The retinas were then washed and incubated for 1 h with Alexa 568 or 647 (Invitrogen), counterstained with DAPI, mounted in Fluoromount, and visualized by confocal microscopy in a SP5 confocal microscope (TCS SP5; Leica Microsystems).

rd10 mice [3] = assay: rd10 mouse retinal degeneration, systemic (i.p.) administration; type: in vivo
Text: Animals: C57BL/6J mice wild-type (WT) and homozygous for the Pde6 mutation (rd10 mouse model of retinal degeneration) were obtained from The Jackson Laboratory. C57BL/6 KFERQ-Dendra mice were generated by back-crossing FVB KFERQ-Dendra mice with wild-type C57BL/6 mice for 8 generations. Both male and female animals were used in this study in equal distribution groups. However, results from both sexes were pooled, because of absence of significant differences in any of the parameters analyzed after statistical analysis with a mixed model of two-way ANOVA sex and treatment as independent variables and the corresponding measure as dependent variable. All animals were housed in a barrier-controlled facility (19-23° C. 30-60% relative humidity; 12-h light/dark cycle) with ad libitum access to standard chow pellets and water. For animal administration of CA compounds, a formula containing 30% PEG 400, 65% glucose solution (5%), 5% Tween 80 was used to dissolve them. CA compounds were prepared freshly by adding 5% DMSO and sonicating for 1 h. Treatment of KFERQ-Dendra mice with the CA compounds was done by i.p. daily injection of 30 mg/kg bw or vehicle for three consecutive days and tissues collected 6 h after the last injection. In the case of rd10 mice, animals were daily injected from P18 to P25 with CA77 (40 mg/kg bw). At P26, mice were sacrificed, and eyes fixed overnight with 4% PFA in PBS at 4° C. for immunofluorescence or retinas dissected and immediately frozen for biochemistry. Distribution of animals in the vehicle or treatment group was done randomly. All animal studies and procedures complied with ethical regulations, were performed in accordance with the European Union guidelines and the ARVO Statement for the Use of Animals in Ophthalmic and Vision Research and were approved by the Institutional Animal Care and Use Committee at the Albert Einstein College of Medicine, the CSIC Bioetica Comite and approved by the Comunidad de Madrid, PROEX232/17.
Cryosections and immunofluorescence: Cryosections and immunofluorescence in retinal sections were performed as previously described 10. Primary antibodies used in this study were Transducin (Santacruz Biotechnologies) and Opsin R/G (Millipore). Sections were visualized by confocal microscopy (TCS SP5; Leica Microsystems).
ONL thickness and outer segment length quantification: For ONL thickness quantification, DAPI images were taken at 40× in a fluorescence microscope Multidimensional system Leica AF6000 LX coupled to DMI600B microscope and Hamamatsu CCD 9100-02 camera. At least two sections per animal were analyzed, preferably central sections. Eight images per retina equally distributed along the retina were acquired. Three measures were taken per image and ratio ONL/INL quantified with ImageJ tools. Leica LAS-X was used for image acquisition and ImageJ (v.2.1.0) was used for image processing. For OS length measures, fixed positions common to all pictures were considered and OS length was measured using ImageJ straight line tool.
Mice were dark adapted overnight, and subsequent manipulations were performed in dim red light. Mice were anesthetized with intraperitoneal injections of ketamine (95 mg/kg) and xylazine (5 mg/kg) solution and maintained on a heating pad at 37° C. Pupils were dilated with a drop of 1% tropicamide (Colircusi Tropicamida; Alcon Cusi). To optimize electrical recording, a topical drop (2% Methocel; Hetlingen) was instilled on each eye immediately before situating the corneal electrode. Flash-induced ERG responses were recorded from the right eye in response to light stimuli produced with a Ganzfeld stimulator. Light intensity was measured with a photometer at the level of the eye (Mavo Monitor USB; Nürenberg). Four to 64 consecutive stimuli were averaged with an interval between light flashes in scotopic conditions of 10 s for dim flashes and of up to 60 s for the highest intensity. Under photopic conditions, the interval between light flashes was fixed at 1 s. […]

rd10 mice [4] = assay: rd10 mouse retinal degeneration, single intravitreal injection; type: in vivo
Protocol: Cryosections and immunofluorescence: Cryosections and immunofluorescence in retinal sections were performed as previously described 10. Primary antibodies used in this study were Transducin (Santacruz Biotechnologies) and Opsin R/G (Millipore). Sections were visualized by confocal microscopy (TCS SP5; Leica Microsystems). ONL thickness and outer segment length quantification: For ONL thickness quantification, DAPI images were taken at 40× in a fluorescence microscope Multidimensional system Leica AF6000 LX coupled to DMI600B microscope and Hamamatsu CCD 9100-02 camera. At least two sections per animal were analyzed, preferably central sections. Eight images per retina equally distributed along the retina were acquired. Three measures were taken per image and ratio ONL/INL quantified with ImageJ tools. Leica LAS-X was used for image acquisition and ImageJ (v.2.1.0) was used for image processing. For OS length measures, fixed positions common to all pictures were considered and OS length was measured using ImageJ straight line tool.

[5] = daily i.p. 40 mg/kg bw, p18 to p25

In the case of `CC(=O)Nc1ccc(C2=Nc3ccc(Cl)cc3OC2)cc1` [CA77], the membrane permeability [1] is reported as “highly membrane permeable”, the “cones (opsin-positive)” value [2] is reported as “higher preservation also for cones” and the “number of rods (rod arrestin-positive)” value [2] is reported as “significant preservation of the number of rods”. The electroretinogram wave amplitude (rd10 mice [3]; ERG at P33) was “significantly higher amplitude of their b-mixed, b-phot and flicker waves”, the “other light responses (ERG)” value (rd10 mice [3]; ERG at P33) was “No significant differences” and the NCoR1 expression levels (rd10 mice [3]; WT and rd10 mice, daily i.p. 40 mg/kg bw) was “did not change the expression levels of NCoR1”. For the same compound, the “mRNA levels of photoreceptor-specific proteins (rhodopsin)” value (rd10 mice [3]; [5]) was “Higher mRNA levels of photoreceptor-specific proteins”, the “outer nuclear layer (ONL) thickness” value (rd10 mice [3]; [5]) was “significantly thicker outer nuclear layers” and the “retinal GFAP levels” value (rd10 mice [3]; [5]) was “strikingly lower levels of GFAP”. The “retinal L2A levels (immunoblot)” value (rd10 mice [3]; [5]) was “significantly increasing retinal levels of the limiting CMA component”, the “length of outer segments of photoreceptors” value (rd10 mice [3]; daily i.p. 40 mg/kg bw, p18 to p25, vs vehicle) was “increased length of the outer segments of photoreceptors” and the vision (rd10 mice [4]; 7 days after single intravitreal injection) was “preserved vision”. For the same compound, the “retinal ONL/INL ratio, OS and ONL preservation” value (rd10 mice [4]; 7 days after single intravitreal injection (40 μM) at P18) was “thicker retinal ONL/INL ratio and better OS and ONL preservation” and the gliosis (rd10 mice [4]; single intravitreal injection (40 μM) at P18) was “significantly improved”.
